{"source": "patent US6599941B1", "about": "“Insecticide and insect repellant compositions” (priority 1993, dated 2003)", "assay": "Tolerability of mono-ethanolamine on humans", "type": "in vivo", "conditions": "when used in higher concentrations", "data": [{"smiles": "NCCO", "note": "[mono-ethanolamine, 2-aminoethanol]", "values": [{"measurement": "irritation of eyes and mucus membranes", "result": "irritating to the eyes and mucus membranes"}]}]}
